Source: patent US20050197350A1, “Novel quinoline, tetrahydroquinazoline, and pyrimidine derivatives and methods of treatment related to the use thereof” (TAISHO PHARMACEUTICAL CO., LTD., priority 2003, published 2005)

tested on: MCH receptors; experiment: MCH receptor activity class (method not given); details: MCH receptor; class by percent of control at 10^-7 M or IC50

Compound | class
CCCCc1ccc(NC(=O)N[C@H]2CC[C@@H](Nc3nc4c(c(N(C)C)n3)CCCC4)CC2)cc1 [compound 1897] | 3 (Class 3 The value of percent of control at 10^−7 M was more than 60% or the value of IC50 was more than 200 nM.)

same assay, conditions: class by percent of control at 10^-7 M or IC50

Compound | class
CN(C)c1nc(N[C@H]2CC[C@@H](NC(=O)Nc3cccc(C(F)(F)F)c3F)CC2)nc2c1CCCC2 [compound 1858] | 3 (Class 3 The value of percent of control at 10^−7 M was more than 60% or the value of IC50 was more than 200 nM.)
CN(C)c1nc(N[C@H]2CC[C@@H](NC(=O)Nc3cc(C(F)(F)F)ccc3F)CC2)nc2c1CCCC2 [compound 1859] | 3 (Class 3 The value of percent of control at 10^−7 M was more than 60% or the value of IC50 was more than 200 nM.)
Cc1ccc(F)c(NC(=O)N[C@H]2CC[C@@H](Nc3nc4c(c(N(C)C)n3)CCCC4)CC2)c1 [compound 1860] | 3 (Class 3 The value of percent of control at 10^−7 M was more than 60% or the value of IC50 was more than 200 nM.)
COc1cc([N+](=O)[O-])ccc1NC(=O)N[C@H]1CC[C@@H](Nc2nc3c(c(N(C)C)n2)CCCC3)CC1 [compound 1861] | 3 (Class 3 The value of percent of control at 10^−7 M was more than 60% or the value of IC50 was more than 200 nM.)
COc1ccc([N+](=O)[O-])cc1NC(=O)N[C@H]1CC[C@@H](Nc2nc3c(c(N(C)C)n2)CCCC3)CC1 [compound 1862] | 3 (Class 3 The value of percent of control at 10^−7 M was more than 60% or the value of IC50 was more than 200 nM.)
CN(C)c1nc(N[C@H]2CC[C@@H](NC(=O)Nc3ccc4ccccc4c3)CC2)nc2c1CCCC2 [compound 1863] | 3 (Class 3 The value of percent of control at 10^−7 M was more than 60% or the value of IC50 was more than 200 nM.)
CN(C)c1nc(N[C@H]2CC[C@@H](NC(=O)Nc3ccccc3Oc3ccccc3)CC2)nc2c1CCCC2 [compound 1864] | 3 (Class 3 The value of percent of control at 10^−7 M was more than 60% or the value of IC50 was more than 200 nM.)
CSc1cccc(NC(=O)N[C@H]2CC[C@@H](Nc3nc4c(c(N(C)C)n3)CCCC4)CC2)c1 [compound 1865] | 3 (Class 3 The value of percent of control at 10^−7 M was more than 60% or the value of IC50 was more than 200 nM.)
CN(C)c1nc(N[C@H]2CC[C@@H](NC(=O)Nc3cccc(SC(F)(F)F)c3)CC2)nc2c1CCCC2 [compound 1866] | 3 (Class 3 The value of percent of control at 10^−7 M was more than 60% or the value of IC50 was more than 200 nM.)
CN(C)c1nc(N[C@H]2CC[C@@H](NC(=O)NCc3ccc(Cl)c(Cl)c3)CC2)nc2c1CCCC2 [compound 1867] | 3 (Class 3 The value of percent of control at 10^−7 M was more than 60% or the value of IC50 was more than 200 nM.)
COc1cc(NC(=O)N[C@H]2CC[C@@H](Nc3nc4c(c(N(C)C)n3)CCCC4)CC2)cc(OC)c1 [compound 1868] | 3 (Class 3 The value of percent of control at 10^−7 M was more than 60% or the value of IC50 was more than 200 nM.)
Cc1cc(C)cc(NC(=O)N[C@H]2CC[C@@H](Nc3nc4c(c(N(C)C)n3)CCCC4)CC2)c1 [compound 1869] | 3 (Class 3 The value of percent of control at 10^−7 M was more than 60% or the value of IC50 was more than 200 nM.)
COC(=O)c1cccc(NC(=O)N[C@H]2CC[C@@H](Nc3nc4c(c(N(C)C)n3)CCCC4)CC2)c1 [compound 1870] | 3 (Class 3 The value of percent of control at 10^−7 M was more than 60% or the value of IC50 was more than 200 nM.)
CCc1cccc(NC(=O)N[C@H]2CC[C@@H](Nc3nc4c(c(N(C)C)n3)CCCC4)CC2)c1 [compound 1871] | 3 (Class 3 The value of percent of control at 10^−7 M was more than 60% or the value of IC50 was more than 200 nM.)
CN(C)c1nc(N[C@H]2CC[C@@H](NC(=O)Nc3cc(F)cc(C(F)(F)F)c3)CC2)nc2c1CCCC2 [compound 1872] | 3 (Class 3 The value of percent of control at 10^−7 M was more than 60% or the value of IC50 was more than 200 nM.)
CN(C)c1nc(N[C@H]2CC[C@@H](NC(=O)NCc3cccc(F)c3)CC2)nc2c1CCCC2 [compound 1873] | 3 (Class 3 The value of percent of control at 10^−7 M was more than 60% or the value of IC50 was more than 200 nM.)
CN(C)c1nc(N[C@H]2CC[C@@H](NC(=O)Nc3cccc([N+](=O)[O-])c3)CC2)nc2c1CCCC2 [compound 1874] | 3 (Class 3 The value of percent of control at 10^−7 M was more than 60% or the value of IC50 was more than 200 nM.)
CN(C)c1nc(N[C@H]2CC[C@@H](NC(=O)Nc3cccc(Oc4ccccc4)c3)CC2)nc2c1CCCC2 [compound 1875] | 3 (Class 3 The value of percent of control at 10^−7 M was more than 60% or the value of IC50 was more than 200 nM.)
CN(C)c1nc(N[C@H]2CC[C@@H](NC(=O)Nc3ccc(OC(F)F)cc3)CC2)nc2c1CCCC2 [compound 1876] | 3 (Class 3 The value of percent of control at 10^−7 M was more than 60% or the value of IC50 was more than 200 nM.)
CCCCOC(=O)c1ccc(NC(=O)N[C@H]2CC[C@@H](Nc3nc4c(c(N(C)C)n3)CCCC4)CC2)cc1 [compound 1877] | 3 (Class 3 The value of percent of control at 10^−7 M was more than 60% or the value of IC50 was more than 200 nM.)

Compound | class
CN(C)c1nc(N[C@H]2CC[C@@H](NC(=O)Nc3ccc(C(F)(F)F)cc3)CC2)nc2c1CCCC2 [compound 1878] | 3 (Class 3 The value of percent of control at 10^−7 M was more than 60% or the value of IC50 was more than 200 nM.)
CN(C)c1nc(N[C@H]2CC[C@@H](NC(=O)Nc3ccc(SC(F)(F)F)cc3)CC2)nc2c1CCCC2 [compound 1879] | 3 (Class 3 The value of percent of control at 10^−7 M was more than 60% or the value of IC50 was more than 200 nM.)
Cc1cc(NC(=O)N[C@H]2CC[C@@H](Nc3nc4c(c(N(C)C)n3)CCCC4)CC2)c([N+](=O)[O-])cc1C [compound 1880] | 3 (Class 3 The value of percent of control at 10^−7 M was more than 60% or the value of IC50 was more than 200 nM.)
CN(C)c1nc(N[C@H]2CC[C@@H](NC(=O)Nc3ccc(OCc4ccccc4)cc3)CC2)nc2c1CCCC2 [compound 1881] | 3 (Class 3 The value of percent of control at 10^−7 M was more than 60% or the value of IC50 was more than 200 nM.)
CN(C)c1nc(N[C@H]2CC[C@@H](NC(=O)Nc3ccc(Cc4ccccc4)cc3)CC2)nc2c1CCCC2 [compound 1882] | 3 (Class 3 The value of percent of control at 10^−7 M was more than 60% or the value of IC50 was more than 200 nM.)
CN(C)c1nc(N[C@H]2CC[C@@H](NC(=O)Nc3ccc(Br)cc3Cl)CC2)nc2c1CCCC2 [compound 1883, N-(4-bromo-2-chlorophenyl)-N′-(cis-4-{[4-(dimethylamino)-5,6,7,8-tetrahydroquinazolin-2-yl]amino}cyclohexyl)urea] | 2 (Class 2: The value of percent of control at 10^−7 M was from 40% to 60% or the value of IC′50 was from 50 nM to 200 nM.)
CN(C)c1nc(N[C@H]2CC[C@@H](NC(=O)Nc3ccc(Br)cc3F)CC2)nc2c1CCCC2 [compound 1884] | 3 (Class 3 The value of percent of control at 10^−7 M was more than 60% or the value of IC50 was more than 200 nM.)
Cc1cc(NC(=O)N[C@H]2CC[C@@H](Nc3nc4c(c(N(C)C)n3)CCCC4)CC2)ccc1Br [compound 1885] | 3 (Class 3 The value of percent of control at 10^−7 M was more than 60% or the value of IC50 was more than 200 nM.)
CN(C)c1nc(N[C@H]2CC[C@@H](NC(=O)Nc3ccc(Cl)cc3[N+](=O)[O-])CC2)nc2c1CCCC2 [compound 1886] | 3 (Class 3 The value of percent of control at 10^−7 M was more than 60% or the value of IC50 was more than 200 nM.)
CN(C)c1nc(N[C@H]2CC[C@@H](NC(=O)Nc3ccc(Cl)c(C(F)(F)F)c3)CC2)nc2c1CCCC2 [compound 1887, N-4[4-chloro-3-(trifluoromethyl)phenyl]-N′-(cis-4-{[4-(dimethylamino)-5,6,7,8-tetrahydroquinazolin-2-yl]amino}cyclohexyl)urea] | 3 (Class 3 The value of percent of control at 10^−7 M was more than 60% or the value of IC50 was more than 200 nM.)
CCOc1ccc(NC(=O)N[C@H]2CC[C@@H](Nc3nc4c(c(N(C)C)n3)CCCC4)CC2)cc1 [compound 1888] | 3 (Class 3 The value of percent of control at 10^−7 M was more than 60% or the value of IC50 was more than 200 nM.)
CN(C)c1nc(N[C@H]2CC[C@@H](NC(=O)Nc3ccc(F)cc3[N+](=O)[O-])CC2)nc2c1CCCC2 [compound 1889] | 3 (Class 3 The value of percent of control at 10^−7 M was more than 60% or the value of IC50 was more than 200 nM.)
CN(C)c1nc(N[C@H]2CC[C@@H](NC(=O)Nc3ccc(F)c(C(F)(F)F)c3)CC2)nc2c1CCCC2 [compound 1890] | 3 (Class 3 The value of percent of control at 10^−7 M was more than 60% or the value of IC50 was more than 200 nM.)
CCCCCCCOc1ccc(NC(=O)N[C@H]2CC[C@@H](Nc3nc4c(c(N(C)C)n3)CCCC4)CC2)cc1 [compound 1891] | 3 (Class 3 The value of percent of control at 10^−7 M was more than 60% or the value of IC50 was more than 200 nM.)
CN(C)c1nc(N[C@H]2CC[C@@H](NC(=O)Nc3ccc(I)cc3)CC2)nc2c1CCCC2 [compound 1892] | 3 (Class 3 The value of percent of control at 10^−7 M was more than 60% or the value of IC50 was more than 200 nM.)
COc1ccc(NC(=O)N[C@H]2CC[C@@H](Nc3nc4c(c(N(C)C)n3)CCCC4)CC2)c([N+](=O)[O-])c1 [compound 1893] | 3 (Class 3 The value of percent of control at 10^−7 M was more than 60% or the value of IC50 was more than 200 nM.)
Cc1ccc(NC(=O)N[C@H]2CC[C@@H](Nc3nc4c(c(N(C)C)n3)CCCC4)CC2)cc1[N+](=O)[O-] [compound 1894] | 3 (Class 3 The value of percent of control at 10^−7 M was more than 60% or the value of IC50 was more than 200 nM.)
Cc1ccc(CNC(=O)N[C@H]2CC[C@@H](Nc3nc4c(c(N(C)C)n3)CCCC4)CC2)cc1 [compound 1895] | 3 (Class 3 The value of percent of control at 10^−7 M was more than 60% or the value of IC50 was more than 200 nM.)
CCCCOc1ccc(NC(=O)N[C@H]2CC[C@@H](Nc3nc4c(c(N(C)C)n3)CCCC4)CC2)cc1 [compound 1896] | 3 (Class 3 The value of percent of control at 10^−7 M was more than 60% or the value of IC50 was more than 200 nM.)
